Assay results as given in ChEMBL document CHEMBL4689842, “EUbOPEN Chemogenomics Library wave 1” (2021).

Columns and labels:
Type in all cases: toxicity, cell-based
[1] = test system: Fibroblast; assay: Incucyte cell viability with human fibroblast; conditions: 10 µM, compound concentration 10 uM
[2] = test system: HEK-293T; assay: Incucyte cell viability with HEK293T; conditions: human, 10 µM, compound concentration 10 uM
[3] = test system: U2OS; assay: Incucyte cell viability with U2OS; conditions: human, 10 µM, compound concentration 10 uM
[4] = 0 h, replicate number 1, timepoint 0 hours
[5] = 6 h, replicate number 1, timepoint 6 hours
[6] = 12 h, replicate number 2, timepoint 12 hours
[7] = 18 h, replicate number 1, timepoint 18 hours
[8] = 24 h, replicate number 1, timepoint 24 hours
[9] = 12 h, replicate number 1, timepoint 12 hours
[10] = 6 h, replicate number 2, timepoint 6 hours
[11] = 0 h, replicate number 2, timepoint 0 hours
[12] = 18 h, replicate number 2, timepoint 18 hours
[13] = 24 h, replicate number 2, timepoint 24 hours
Further: filed as whole numbers so only -1 and 0 and 1 occur.

Compound | Growth Rate [1, 4] | Growth Rate [1, 5] | Growth Rate [1, 6] | Growth Rate [1, 7] | Growth Rate [1, 8] | Growth Rate [2, 4] | Growth Rate [2, 5] | Growth Rate [2, 9] | Growth Rate [2, 7] | Growth Rate [2, 8] | Growth Rate [3, 4] | Growth Rate [3, 10] | Growth Rate [3, 9] | Growth Rate [3, 7] | Growth Rate [3, 8] | Growth Rate [1, 10] | Growth Rate [1, 9] | Growth Rate [2, 11] | Growth Rate [3, 6] | Growth Rate [1, 12] | also measured
CC1CCN(CC[C@H]2CCCN2S(=O)(=O)c2cccc(O)c2)CC1.Cl | 0 | 1 | 1 | 1 | 1 | 0 | 1 | 1 | 1 | 1 | 0 | 1 | 1 | 1 | 1 | – | – | – | – | – | Growth Rate [2, 6]: 0
O=C(O)C1CN(Cc2ccc(-c3nc4cc(Cc5ccccc5F)ccc4s3)c(F)c2)C1 | 0 | 1 | – | 1 | 1 | 1 | 0 | 0 | 0 | 0 | 0 | 0 | 1 | 0 | 1 | 0 | 1 | 0 | 0 | – | Growth Rate [3, 12]: 1; Growth Rate [3, 13]: 0
Cn1c(CNc2cccc(C(=O)NCc3ccccc3C(F)(F)F)c2)nnc1-c1ccncc1 | 1 | 0 | – | 0 | 0 | 0 | – | – | – | – | – | – | 0 | 0 | 0 | – | 0 | – | 1 | – | Growth Rate [1, 11]: 0; Growth Rate [2, 13]: 1; Growth Rate [3, 11]: 0; Growth Rate [3, 5]: 0
COc1ccc(S(=O)(=O)c2cc(OC)ccc2S(=O)(=O)c2ccc([C@H](C)NS(C)(=O)=O)cc2)cc1 | 0 | – | 1 | – | 1 | 1 | 0 | 1 | 1 | 1 | 0 | 0 | 0 | 1 | 1 | 0 | – | 0 | 1 | 1 | Growth Rate [1, 11]: 1; Growth Rate [2, 10]: 1; Growth Rate [3, 12]: 0; Growth Rate [3, 13]: 0
Cc1csc(NC(=O)c2cc(F)cc(Oc3cncnc3)c2)n1 | 0 | 0 | – | 1 | 1 | 0 | 1 | 0 | 1 | 1 | – | 0 | 0 | 0 | 0 | – | 0 | – | – | 0 | Growth Rate [1, 13]: 0; Growth Rate [2, 6]: 1; Growth Rate [2, 12]: 0; Growth Rate [2, 13]: 0; Growth Rate [3, 5]: 1; Growth Rate [3, 12]: 1; Growth Rate [3, 13]: 1
O=C(O)Cn1c(C(=O)Nc2nc(-c3ccccc3Cl)cs2)cc2ccccc21 | 0 | 1 | – | 1 | 0 | 0 | 1 | 1 | 1 | 1 | – | 0 | 1 | 0 | 1 | 0 | 0 | – | – | 0 | Growth Rate [1, 11]: 1; Growth Rate [2, 10]: 0; Growth Rate [2, 6]: 0; Growth Rate [2, 12]: 0; Growth Rate [2, 13]: 0; Growth Rate [3, 11]: 0
CN1C[C@H](Nc2cnn(C)c(=O)c2Br)C[C@H](c2ccccc2)C1 | 0 | 0 | 0 | 1 | 1 | 1 | 0 | 0 | 0 | 0 | – | – | 1 | 1 | 1 | – | 1 | 0 | – | 0 | Growth Rate [1, 13]: 0; Growth Rate [3, 11]: 0; Growth Rate [3, 5]: 0
COC(=O)C(Cc1ccc(OCCn2c(=O)sc3cc(C(=O)c4ccccc4)ccc32)cc1)C(=O)OC | 0 | – | 0 | 1 | 1 | 1 | 0 | 0 | 0 | 0 | 0 | 1 | 1 | 1 | 1 | 0 | 1 | 0 | – | 0 | –
O=C([O-])c1cc2ccccc2c(Cc2c(O)c(C(=O)[O-])cc3ccccc23)c1O.[Na+].[Na+] | 0 | 1 | – | 1 | 1 | 0 | 1 | 1 | 1 | 1 | 0 | 1 | 0 | 0 | 0 | – | 1 | – | 1 | – | Growth Rate [3, 13]: 1
C[C@H](N)COC(=O)[C@@H](CCCCN)NC(=O)Cc1c(-c2ccc3ccccc3c2)[nH]c2c1ccc1ccccc12 | 0 | 0 | 0 | 0 | 0 | 0 | 1 | 1 | 1 | 1 | – | 0 | 1 | 1 | 1 | – | 1 | – | – | – | Growth Rate [2, 10]: 0; Growth Rate [2, 6]: 0; Growth Rate [2, 12]: 0; Growth Rate [2, 13]: 0; Growth Rate [3, 11]: 0
CC1(C)CCC(C)(C)c2cc(C(=O)Nc3ccc(C(=O)O)cc3)ccc21 | 0 | 1 | 0 | 1 | 1 | 0 | 1 | 1 | 1 | 1 | 0 | 1 | 1 | 1 | 1 | 0 | 1 | – | – | 0 | –
O=C(Cc1ccccc1)Nc1nc2ccc(Cl)cc2c2nc(-c3ccco3)nn12 | 0 | – | 1 | 0 | 0 | 1 | 0 | 0 | 0 | 0 | 0 | 0 | 1 | 1 | 1 | 0 | 0 | 0 | 0 | 1 | Growth Rate [1, 11]: 1; Growth Rate [1, 13]: 1; Growth Rate [2, 10]: 1; Growth Rate [3, 12]: 0; Growth Rate [3, 13]: 0
